Read-outs that look alike come from different tables or passages of the source.
Test system: hypercholesterolemia golden hamster model
Assay: In vivo pharmacodynamic screening in hypercholesterolemia model of golden hamster (plasma TC and LDL-C)
Conditions: for inhibition in vivo at 1 mg/kg / inhibition in vivo at 10 mg/kg / inhibition in vivo at 5 mg/kg / inhibition in vivo at 3 mg/kg: Mesocricetus auratus, po, 168 h; for LDL after administration / TC after administration / LDL-C after administration: 1 week, plasma; for reduction of plasma TC and LDL-C levels (in words): golden hamster hypercholesterolemic model, significant statistical difference; for effect of lowering cholesterol (screening result in words): in vivo pharmacodynamic screening test, Ezetimibe as positive control; for efficacy compared with the positive control (in words): positive control Ezetimibe
Procedure: 1. Establishment of Hypercholesterolemia Model of Golden Hamster:
The animals were subjected to acclimation feeding for 1 week with free feeding and drinking under a lighting condition of 10 h/14 h. On Day 8, the animals were raised with high fat feed (consisting of 0.5% cholesterol, 20% palm oil, 79.5% basal feed) for 1 week. Then, each animal was anesthetized by ether. After weighing, 0.5 ml blood was obtained from orbital vein, anticoagulated with heparin and centrifuged at 5000 rpm for 10 min. The plasma was collected and the levels of plasma TC (total cholesterol) and LDL-C (low density lipoprotein cholesterol) were determined by automatic biochemical analyzer. Animals with plasma TC of 9-15 mmol/L were selected as model animals (refer to the following reference for the method of animal modeling: Burrier, R. E., Smith, A. A., Mcgregor, D. G, Hoos, L. M., Zilli, D. L., Davis, H. R. The effect of acyl CoA: cholesterol acyltransferase inhibition on the uptake, esterification and secretion of cholesterol by the hamster small intestine. J. Pharm. Exp. Ther., 1995, 272, 156-163).
The animals were grouped according to TC and LDL-C levels and weight with 6 animals per group. Ezetimibe was used as positive control. The animals were intragastrically administered at a volume of 5 ml/kg for 1 week. Each animal was anesthetized by ether. After weighing, 0.5 ml blood was taken from orbital vein, anticoagulated with heparin, and centrifuged at 5000 rpm for 10 min. The plasma was collected and plasma TC (total cholesterol) and LDL-C (low density lipoprotein cholesterol) levels were determined by automatic biochemical analyzer to evaluate the efficacy of the compounds.

[1] = Table 6, read-out: Reducing LDL-C %
[2] = Table 6, read-out: Reducing TC %
[3] = Table 10, read-out: Reducing LDL-C %
[4] = Table 10, read-out: Reducing TC %
[5] = Table 12, read-out: Reducing LDL-C %
[6] = Table 12, read-out: Reducing TC %
[7] = Table 11, baseline of group dosed 3 mg/kg
[8] = Table 11, 10 mg/kg intragastric
[9] = Table 11, baseline of group dosed 10 mg/kg
[10] = Table 8, read-out: Reducing LDL-C %
[11] = Table 8, read-out: Reducing TC %

CC(=O)OC/C(=C\C[C@H]1C(=O)N(c2ccc(F)cc2)[C@@H]1c1ccc(O)cc1)c1ccc(F)cc1 [I-12(Z), (3R,4S)-3-[(Z)-4-acetoxy-3-(4-fluorophenyl)-but-2-enyl]-1-(4-fluorophenyl)-4-(4-hydroxyphenyl)azetidin-2-one]
inhibition in vivo at 1 mg/kg [1]: 62.8%
inhibition in vivo at 1 mg/kg [2]: 50.9%
inhibition in vivo at 10 mg/kg [1]: 71.5%
inhibition in vivo at 10 mg/kg [2]: 54.8%
LDL after administration (Table 5, 1 mg/kg intragastric): 1.58 mmol/L
TC after administration (Table 5, 1 mg/kg intragastric): 5.29 mmol/L
LDL after administration (Table 5, 10 mg/kg intragastric): 1.34 mmol/L
TC after administration (Table 5, 10 mg/kg intragastric): 4.86 mmol/L
reduction of plasma TC and LDL-C levels (in words): can significantly reduce the plasma TC and LDL-C levels
effect of lowering cholesterol (screening result in words): have the effect of lowering cholesterol

CC(=O)OC/C(=C\C[C@H]1C(=O)N(c2ccc(F)cc2)[C@@H]1c1ccc(OC(=O)c2ccccc2)cc1)c1ccc(F)cc1 [I-16(Z), (3R,4S)-3-[(Z)-4-acetoxy-3-(4-fluorophenyl)-but-2-enyl]-4-(4-benzoyloxyphenyl)-1-(4-fluorophenyl)azetidin-2-one]
inhibition in vivo at 1 mg/kg [3]: 31.7%
inhibition in vivo at 1 mg/kg [4]: 37.4%
inhibition in vivo at 10 mg/kg [3]: 65%
inhibition in vivo at 10 mg/kg [4]: 60.9%
LDL after administration (Table 9, 1 mg/kg intragastric): 2.15 mmol/L
TC after administration (Table 9, 1 mg/kg intragastric): 9.61 mmol/L
LDL after administration (Table 9, 10 mg/kg intragastric): 1.1 mmol/L
TC after administration (Table 9, 10 mg/kg intragastric): 6.0 mmol/L
reduction of plasma TC and LDL-C levels (in words): can significantly reduce the plasma TC and LDL-C levels
effect of lowering cholesterol (screening result in words): have the effect of lowering cholesterol

O=C(Oc1ccc([C@@H]2[C@@H](C/C=C(\CO)c3ccc(F)cc3)C(=O)N2c2ccc(F)cc2)cc1)c1ccccc1 [I-5(Z), (3R,4S)-4-(4-benzoyloxyphenyl)-1-(4-fluorophenyl)-3-[(Z)-3-(4-fluorophenyl)-4-hydroxy-but-2-enyl]azetidin-2-one]
inhibition in vivo at 1 mg/kg [3]: 30.7%
inhibition in vivo at 1 mg/kg [4]: 31.2%
inhibition in vivo at 10 mg/kg [3]: 68.1%
inhibition in vivo at 10 mg/kg [4]: 62.7%
LDL after administration (Table 9, 1 mg/kg intragastric): 2.18 mmol/L
TC after administration (Table 9, 1 mg/kg intragastric): 10.55 mmol/L
LDL after administration (Table 9, 10 mg/kg intragastric): 1.0 mmol/L
TC after administration (Table 9, 10 mg/kg intragastric): 5.73 mmol/L
reduction of plasma TC and LDL-C levels (in words): can significantly reduce the plasma TC and LDL-C levels
effect of lowering cholesterol (screening result in words): have the effect of lowering cholesterol

CC(=O)Oc1ccc([C@@H]2[C@@H](C/C=C(\CO)c3ccc(F)cc3)C(=O)N2c2ccc(F)cc2)cc1 [I-6(Z), (3R,4S)-4-(4-acetoxyphenyl)-1-(4-fluorophenyl)-3-[(Z)-3-(4-fluorophenyl)-4-hydroxy-but-2-enyl]azetidin-2-one]
inhibition in vivo at 1 mg/kg [3]: 50.2%
inhibition in vivo at 1 mg/kg [4]: 51.5%
inhibition in vivo at 10 mg/kg [3]: 70.4%
inhibition in vivo at 10 mg/kg [4]: 65.6%
LDL after administration (Table 9, 1 mg/kg intragastric): 1.57 mmol/L
TC after administration (Table 9, 1 mg/kg intragastric): 7.45 mmol/L
LDL after administration (Table 9, 10 mg/kg intragastric): 0.93 mmol/L
TC after administration (Table 9, 10 mg/kg intragastric): 5.28 mmol/L
reduction of plasma TC and LDL-C levels (in words): can significantly reduce the plasma TC and LDL-C levels
effect of lowering cholesterol (screening result in words): have the effect of lowering cholesterol
efficacy compared with the positive control (in words): more similar to the positive control

O=C1[C@H](C/C=C(\CO)c2ccc(F)cc2)[C@@H](c2ccc(OCc3ccccc3)cc2)N1c1ccc(F)cc1 [I-4(Z)]
inhibition in vivo at 5 mg/kg [5]: 53.5%
inhibition in vivo at 5 mg/kg [6]: 49.1%
LDL-C after administration (Table 11, 3 mg/kg intragastric): 1.51
TC after administration (Table 11, 3 mg/kg intragastric): 6.48
LDL-C before administration [7]: 3.25 ± 0.79
TC before administration [7]: 12.73 ± 1.27
reduction of plasma TC and LDL-C levels (in words): can significantly reduce the plasma TC and LDL-C levels
effect of lowering cholesterol (screening result in words): have the effect of lowering cholesterol
efficacy compared with the positive control (in words): more similar to the positive control

COc1ccc([C@@H]2[C@@H](C/C=C(\CO)c3ccc(F)cc3)C(=O)N2c2ccc(F)cc2)cc1 [I-2(Z)]
inhibition in vivo at 5 mg/kg [5]: 63.4%
inhibition in vivo at 5 mg/kg [6]: 62.2%
LDL-C after administration [8]: 1.01
TC after administration [8]: 4.82
LDL-C before administration [9]: 2.76 ± 0.43
TC before administration [9]: 12.74 ± 1.32
reduction of plasma TC and LDL-C levels (in words): can significantly reduce the plasma TC and LDL-C levels
effect of lowering cholesterol (screening result in words): have the effect of lowering cholesterol
efficacy compared with the positive control (in words): more similar to the positive control

O=C(OC/C(=C\C[C@H]1C(=O)N(c2ccc(F)cc2)[C@@H]1c1ccc(O)cc1)c1ccc(F)cc1)c1ccccc1 [I-13(Z)]
inhibition in vivo at 1 mg/kg [1]: 58.1%
inhibition in vivo at 1 mg/kg [2]: 36.8%
inhibition in vivo at 10 mg/kg [1]: 68.8%
inhibition in vivo at 10 mg/kg [2]: 55.4%
LDL after administration (Table 5, 1 mg/kg intragastric): 1.98 mmol/L
TC after administration (Table 5, 1 mg/kg intragastric): 6.92 mmol/L
LDL after administration (Table 5, 10 mg/kg intragastric): 1.27 mmol/L
TC after administration (Table 5, 10 mg/kg intragastric): 4.81 mmol/L
reduction of plasma TC and LDL-C levels (in words): can significantly reduce the plasma TC and LDL-C levels
effect of lowering cholesterol (screening result in words): have the effect of lowering cholesterol

Cc1ccc(C(=O)OC/C(=C\C[C@H]2C(=O)N(c3ccc(F)cc3)[C@@H]2c2ccc(O)cc2)c2ccc(F)cc2)cc1 [I-15(Z)]
inhibition in vivo at 1 mg/kg [10]: 46.5%
inhibition in vivo at 1 mg/kg [11]: 38.1%
inhibition in vivo at 3 mg/kg [10]: 70.4%
inhibition in vivo at 3 mg/kg [11]: 50.8%
LDL after administration (Table 7, 1 mg/kg intragastric): 1.99 mmol/L
TC after administration (Table 7, 1 mg/kg intragastric): 6.76 mmol/L
LDL after administration (Table 7, 3 mg/kg intragastric): 1.44 mmol/L
TC after administration (Table 7, 3 mg/kg intragastric): 5.37 mmol/L
reduction of plasma TC and LDL-C levels (in words): can significantly reduce the plasma TC and LDL-C levels
effect of lowering cholesterol (screening result in words): have the effect of lowering cholesterol
efficacy compared with the positive control (in words): more similar to the positive control

COc1ccc([C@@H]2[C@@H](C/C=C(\COC(C)=O)c3ccc(F)cc3)C(=O)N2c2ccc(F)cc2)cc1 [I-17(Z), (3R,4S)-3-[(Z)-4-acetoxy-3-(4-fluorophenyl)-but-2-enyl]-1-(4-fluorophenyl)-4-(4-methoxyphenyl)azetidin-2-one]
inhibition in vivo at 10 mg/kg [5]: 60.1%
inhibition in vivo at 10 mg/kg [6]: 59.8%
LDL-C after administration [8]: 1.19
TC after administration [8]: 5.09
LDL-C before administration [9]: 2.98 ± 0.72
TC before administration [9]: 12.67 ± 1.28
reduction of plasma TC and LDL-C levels (in words): can significantly reduce the plasma TC and LDL-C levels
effect of lowering cholesterol (screening result in words): have the effect of lowering cholesterol
efficacy compared with the positive control (in words): more similar to the positive control

O=C(OC/C(=C\C[C@H]1C(=O)N(c2ccc(F)cc2)[C@@H]1c1ccc(O)cc1)c1ccc(F)cc1)c1ccc(F)cc1 [I-14(Z)]
inhibition in vivo at 1 mg/kg [10]: 28.6%
inhibition in vivo at 1 mg/kg [11]: 13.5%
inhibition in vivo at 3 mg/kg [10]: 52.3%
inhibition in vivo at 3 mg/kg [11]: 44.4%
LDL after administration (Table 7, 1 mg/kg intragastric): 2.56 mmol/L
TC after administration (Table 7, 1 mg/kg intragastric): 9.34 mmol/L
LDL after administration (Table 7, 3 mg/kg intragastric): 2.01 mmol/L
TC after administration (Table 7, 3 mg/kg intragastric): 6.06 mmol/L
reduction of plasma TC and LDL-C levels (in words): can significantly reduce the plasma TC and LDL-C levels
effect of lowering cholesterol (screening result in words): have the effect of lowering cholesterol

Source: US8623855B2, “Azetidinone compounds and medical use thereof” (Zhejiang Hisun Pharmaceutical Co., Ltd., priority 2009, dated 2014)
